Calls of active or inactive are those of the source.
How the values were obtained:
Paired box protein Pax-8 = Paired box protein Pax-8 (Homo sapiens, UniProt Q06710); assay: PAX8 transcriptional activity inhibition in RMG-I – RMG-I cells, luciferase, cherry-pick, dose response (AID 687027); type: functional, cell-based;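 further: luciferase reporter driven by Pax8 target thyroperoxidase promoter measured by SteadyGlo luminescence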
[1] = target: T1, Calpain-2 catalytic subunit (Sus scrofa, UniProt P43367); assay: m-calpain protease blockers, concentration series – biochemical, fluorogenic peptide substrate, dose response (AID 1420); type: functional
T1 sequence (P43367 whole entry): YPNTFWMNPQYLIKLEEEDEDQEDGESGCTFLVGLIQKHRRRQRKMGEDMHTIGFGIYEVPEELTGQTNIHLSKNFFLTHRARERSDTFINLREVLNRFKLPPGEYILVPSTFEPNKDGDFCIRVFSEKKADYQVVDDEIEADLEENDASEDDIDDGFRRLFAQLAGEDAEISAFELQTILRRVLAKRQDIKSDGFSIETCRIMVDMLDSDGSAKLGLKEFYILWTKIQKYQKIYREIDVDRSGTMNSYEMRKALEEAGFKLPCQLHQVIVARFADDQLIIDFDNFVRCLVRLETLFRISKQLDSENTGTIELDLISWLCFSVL

[2] = Luminescence Cell-Based Dose Response HTS to Identify Activators of Luciferase Translation or Activity in H4 […] Cells. [Related pubchem assays: 1829 (Project Summary), 1814 (Primary HTS)]; type: functional
H4 = assay: Luminescence Cell-Based Dose Response HTS to Identify Activators of 5'UTR Stem-Loop Driven Prion Protein mRNA Translation in H4 Neuroglioblastoma Cells. [Related pubchem assays: 1829 (Project Summary), 1814 (Primary HTS)]; type: functional; details: Homo sapiens
[3] = P. falciparum Dd2 growth inhibitors, dose response, SYBR Green, cherry-picked samples (AID 1159567); type: functional, cell-based
Vero = assay: cells; type: functional; details: Chlorocebus sabaeus
[4] = NIH-3T3 fibroblast cytotoxicity, dose response, cytotoxicity control, cell-based, fluorescence, Alamar Blue, secondary assay (AID 2327); type: functional;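 further: NIH-3T3 mouse fibroblasts cultured with fluconazole at 8 µg/mL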
[5] = fluconazole-exposed Candida albicans growth modulators – fluorescence, retest, confirmation (AID 2467); type: functional, cell-based
cells [6] = type: functional, cell-based
cells [7] = type: functional, cell-based; remark: listed apart in the source
[8] = viability of uninfected HEp-2 cells – cell-based, HTS, cytotoxicity control for RSV inhibitor project, dose response (AID 2410); type: functional; details: human respiratory syncytial virus
[9] = reduction of Shn3 3'UTR-driven luciferase in osteoblasts – cell-based, Clone20 osteoblasts, firefly luciferase, cherry-picked, dose response (AID 624132); type: functional;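 further: firefly luciferase luminescence from reporter carrying the Shn3 3'UTR in osteoblasts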
[10] = non-specific 3'UTR reporter inhibition in Clone20-Shn3RL – cell-based, Renilla luciferase, cherry-picked, counter-screen for Shn3 inhibitor project, dose response (AID 624133); type: functional
[11] = blockers of HIV-1 envelope-mediated cell-cell fusion – cherry-pick, dose response (AID 652057); type: functional, cell-based
[12] = target: Luciferin 4-monooxygenase (Photinus pyralis, UniProt P08659); assay: inhibition of purified Photinus pyralis luciferase – biochemical, luminescence, dose response (AID 1891)
[13] = Luminescence Cell-Based Dose Confirmation HTS to Identify Inhibitors of Platelet Dense Granule Release. [Related pubchem assays: 1663 (Primary HTS), 1678 (Summary of Project)]; type: functional
[14] = target: FAD-linked sulfhydryl oxidase ALR (Homo sapiens, UniProt P55789); assay: ALR-catalysed DTT oxidation blockers – biochemical, H2O2 detection, luminescence, cherry-pick, dose response (AID 493248)
[15] = target: T2, Rac GTPase-activating protein 1 (Homo sapiens, UniProt Q9H0H5); assay: blockers of MgcRacGAP-driven Rac1 GTP hydrolysis – biochemical, ADP Hunter fluorescence, primary and confirmatory, confirmation (AID 624330); type: functional
T2 sequence (Q9H0H5 whole entry): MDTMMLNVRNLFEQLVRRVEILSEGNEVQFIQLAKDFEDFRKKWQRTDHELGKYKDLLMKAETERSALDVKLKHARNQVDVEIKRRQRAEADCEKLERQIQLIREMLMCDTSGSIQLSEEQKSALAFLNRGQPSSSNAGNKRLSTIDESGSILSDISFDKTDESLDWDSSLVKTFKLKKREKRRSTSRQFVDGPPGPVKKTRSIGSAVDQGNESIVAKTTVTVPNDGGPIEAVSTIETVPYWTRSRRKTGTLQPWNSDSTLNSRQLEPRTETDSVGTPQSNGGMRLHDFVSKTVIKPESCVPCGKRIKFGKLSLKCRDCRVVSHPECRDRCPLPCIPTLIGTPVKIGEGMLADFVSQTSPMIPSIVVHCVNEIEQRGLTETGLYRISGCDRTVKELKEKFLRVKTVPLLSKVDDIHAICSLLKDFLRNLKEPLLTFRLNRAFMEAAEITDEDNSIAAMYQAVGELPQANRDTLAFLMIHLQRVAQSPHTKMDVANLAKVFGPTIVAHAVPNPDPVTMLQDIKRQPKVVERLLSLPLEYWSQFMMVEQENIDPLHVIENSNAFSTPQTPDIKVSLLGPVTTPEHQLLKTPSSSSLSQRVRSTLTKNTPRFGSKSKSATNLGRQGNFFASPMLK

[16] = loss of viability in HepG2 cells – cell-based, CellTiter-Glo, cherry-picked, cytotoxicity control for Shn3 inhibitor project, dose response (AID 624134); type: functional
BJ [17] = assay: BJ-TERT fibroblast viability loss – cell-based, RAS-independent, luminescence, dose response (AID 1933); type: functional; details: Homo sapiens
BJ [18] = assay: cells; type: functional, cell-based; details: Homo sapiens
BJ [19] = assay: BJ-TERT-LT-ST fibroblast viability loss – cell-based, RAS-independent, luminescence, dose response (AID 1935); type: functional; details: Homo sapiens;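 further: BJ fibroblasts immortalized with TERT plus LT and ST oncogenes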
[20] = DRD fibroblast viability loss – cell-based, non-viral oncogenic, luminescence, dose response (AID 1934); type: functional; details: Homo sapiens
Fatty acid synthase [21] = target: T3, Fatty acid synthase (Homo sapiens, UniProt P49327); assay: inhibition of human FAS-TE enzyme activity – biochemical, endpoint fluorescence intensity, uHTS hits, dose response (AID 624327); type: functional;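 further: fluorescence from hydrolysis of an O-methyl fluorescein acyl ester substrate by the enzyme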
Fatty acid synthase [22] = target: T3, Fatty acid synthase; assay: inhibition of human FAS-TE enzyme activity – biochemical, kinetic fluorescence intensity, dose response (AID 624326); type: functional;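 further: rate of fluorescence rise from hydrolysis of a fluorogenic O-methyl fluorescein ester substrate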

T3 sequence (P49327 whole entry): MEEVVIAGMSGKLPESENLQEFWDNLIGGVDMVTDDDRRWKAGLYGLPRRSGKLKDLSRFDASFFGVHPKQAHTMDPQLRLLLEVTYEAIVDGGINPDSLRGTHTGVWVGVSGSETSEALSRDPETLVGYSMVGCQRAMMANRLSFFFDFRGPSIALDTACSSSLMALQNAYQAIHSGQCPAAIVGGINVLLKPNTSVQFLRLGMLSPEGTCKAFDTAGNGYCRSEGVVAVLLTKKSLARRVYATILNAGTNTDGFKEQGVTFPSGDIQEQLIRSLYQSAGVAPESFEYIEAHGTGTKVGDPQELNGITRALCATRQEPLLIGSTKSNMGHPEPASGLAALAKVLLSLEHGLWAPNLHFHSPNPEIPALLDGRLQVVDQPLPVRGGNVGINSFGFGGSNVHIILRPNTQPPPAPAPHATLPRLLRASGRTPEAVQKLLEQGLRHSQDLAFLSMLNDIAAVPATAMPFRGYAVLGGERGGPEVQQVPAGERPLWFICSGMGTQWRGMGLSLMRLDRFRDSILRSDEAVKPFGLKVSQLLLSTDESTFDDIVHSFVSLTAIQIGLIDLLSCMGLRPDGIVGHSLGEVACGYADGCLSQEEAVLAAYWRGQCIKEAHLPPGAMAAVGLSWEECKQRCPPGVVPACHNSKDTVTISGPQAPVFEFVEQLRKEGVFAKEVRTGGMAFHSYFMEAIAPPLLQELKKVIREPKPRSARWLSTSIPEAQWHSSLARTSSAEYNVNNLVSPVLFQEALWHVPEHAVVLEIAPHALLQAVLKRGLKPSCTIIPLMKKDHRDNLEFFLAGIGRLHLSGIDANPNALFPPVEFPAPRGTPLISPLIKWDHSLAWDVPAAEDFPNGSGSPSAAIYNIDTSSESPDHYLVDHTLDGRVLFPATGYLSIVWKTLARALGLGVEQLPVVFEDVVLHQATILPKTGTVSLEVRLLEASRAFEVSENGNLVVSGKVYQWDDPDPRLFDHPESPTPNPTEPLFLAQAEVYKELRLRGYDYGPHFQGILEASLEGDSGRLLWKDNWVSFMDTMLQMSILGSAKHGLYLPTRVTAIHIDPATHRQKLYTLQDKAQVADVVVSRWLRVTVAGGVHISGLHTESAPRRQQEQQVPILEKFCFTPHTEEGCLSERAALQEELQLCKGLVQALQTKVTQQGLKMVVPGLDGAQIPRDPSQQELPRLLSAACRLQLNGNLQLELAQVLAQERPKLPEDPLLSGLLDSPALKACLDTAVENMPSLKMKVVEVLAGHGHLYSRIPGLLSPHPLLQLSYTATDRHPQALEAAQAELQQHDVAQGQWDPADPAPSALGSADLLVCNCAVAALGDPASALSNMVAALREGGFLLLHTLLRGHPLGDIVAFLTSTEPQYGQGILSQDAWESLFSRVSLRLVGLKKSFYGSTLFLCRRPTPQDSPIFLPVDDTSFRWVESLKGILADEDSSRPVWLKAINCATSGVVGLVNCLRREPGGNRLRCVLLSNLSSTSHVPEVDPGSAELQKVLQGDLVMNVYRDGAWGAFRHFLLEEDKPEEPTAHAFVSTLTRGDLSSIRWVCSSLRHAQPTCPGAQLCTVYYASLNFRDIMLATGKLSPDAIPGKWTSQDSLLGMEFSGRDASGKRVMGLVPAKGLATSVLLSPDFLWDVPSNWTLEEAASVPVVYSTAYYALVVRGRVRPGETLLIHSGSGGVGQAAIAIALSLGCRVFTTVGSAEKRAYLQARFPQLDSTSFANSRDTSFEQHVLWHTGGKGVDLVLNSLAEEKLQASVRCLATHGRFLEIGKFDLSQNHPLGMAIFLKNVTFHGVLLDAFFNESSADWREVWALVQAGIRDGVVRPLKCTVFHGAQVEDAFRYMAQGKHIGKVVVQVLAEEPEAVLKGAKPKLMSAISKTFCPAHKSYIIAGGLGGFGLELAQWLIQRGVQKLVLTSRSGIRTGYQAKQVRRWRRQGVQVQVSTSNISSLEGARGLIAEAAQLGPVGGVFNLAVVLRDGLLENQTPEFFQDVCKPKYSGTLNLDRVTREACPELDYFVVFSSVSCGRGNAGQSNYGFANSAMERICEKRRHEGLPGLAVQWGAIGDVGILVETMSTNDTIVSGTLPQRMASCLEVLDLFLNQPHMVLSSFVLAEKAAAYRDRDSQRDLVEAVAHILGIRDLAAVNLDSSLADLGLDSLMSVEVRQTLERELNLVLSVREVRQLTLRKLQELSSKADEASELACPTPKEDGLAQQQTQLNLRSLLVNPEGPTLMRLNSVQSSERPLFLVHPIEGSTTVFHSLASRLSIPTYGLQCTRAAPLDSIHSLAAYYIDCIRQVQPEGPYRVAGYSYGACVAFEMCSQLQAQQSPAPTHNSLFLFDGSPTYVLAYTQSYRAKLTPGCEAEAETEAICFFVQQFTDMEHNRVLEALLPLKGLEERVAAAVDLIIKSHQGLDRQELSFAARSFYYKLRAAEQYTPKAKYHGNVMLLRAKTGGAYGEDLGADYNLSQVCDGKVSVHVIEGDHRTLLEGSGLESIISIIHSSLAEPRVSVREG
Chain of Luciferin 4-monooxygenase (P08659 whole entry): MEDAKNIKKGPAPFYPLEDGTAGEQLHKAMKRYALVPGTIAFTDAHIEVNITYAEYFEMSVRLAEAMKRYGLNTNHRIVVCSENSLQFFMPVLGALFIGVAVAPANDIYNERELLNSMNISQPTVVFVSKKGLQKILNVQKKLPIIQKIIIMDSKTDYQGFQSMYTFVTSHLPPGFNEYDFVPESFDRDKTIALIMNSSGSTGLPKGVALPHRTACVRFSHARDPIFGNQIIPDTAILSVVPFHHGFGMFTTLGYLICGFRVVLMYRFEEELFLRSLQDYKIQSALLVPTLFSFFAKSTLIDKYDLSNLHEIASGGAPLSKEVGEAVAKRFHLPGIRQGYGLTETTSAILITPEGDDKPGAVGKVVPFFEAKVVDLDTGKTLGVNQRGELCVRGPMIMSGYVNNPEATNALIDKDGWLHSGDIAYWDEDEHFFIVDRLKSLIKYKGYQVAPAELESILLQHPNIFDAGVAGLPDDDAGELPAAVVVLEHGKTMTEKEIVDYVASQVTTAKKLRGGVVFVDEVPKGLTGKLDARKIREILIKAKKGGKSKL
Chain of FAD-linked sulfhydryl oxidase ALR (P55789 whole entry): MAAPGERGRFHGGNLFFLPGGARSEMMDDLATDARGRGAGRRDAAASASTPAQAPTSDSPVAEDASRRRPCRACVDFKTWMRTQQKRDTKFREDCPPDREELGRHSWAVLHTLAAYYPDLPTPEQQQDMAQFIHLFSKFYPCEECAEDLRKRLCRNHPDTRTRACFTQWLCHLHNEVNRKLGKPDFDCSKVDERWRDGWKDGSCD
Chain of Paired box protein Pax-8 (Q06710 whole entry): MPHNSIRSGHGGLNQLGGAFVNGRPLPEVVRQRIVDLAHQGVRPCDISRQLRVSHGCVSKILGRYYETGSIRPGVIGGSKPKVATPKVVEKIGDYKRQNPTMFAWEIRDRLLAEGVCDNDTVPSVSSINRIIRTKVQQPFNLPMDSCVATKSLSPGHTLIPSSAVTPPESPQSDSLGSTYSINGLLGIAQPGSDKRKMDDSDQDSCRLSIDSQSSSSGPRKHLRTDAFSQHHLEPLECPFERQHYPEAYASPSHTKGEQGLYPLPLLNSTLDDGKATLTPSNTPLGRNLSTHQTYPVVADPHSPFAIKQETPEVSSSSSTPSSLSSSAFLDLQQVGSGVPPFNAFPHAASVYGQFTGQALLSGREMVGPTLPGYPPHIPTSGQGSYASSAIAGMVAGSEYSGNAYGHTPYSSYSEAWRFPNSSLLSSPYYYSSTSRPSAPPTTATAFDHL

With O=C(C[C@@H]1C[C@H]2c3cc(NC(=O)Nc4ccc(C(F)(F)F)cc4)ccc3O[C@H]2[C@H](CO)O1)NCCc1ccccc1 the AC50 (Paired box protein Pax-8) was 15.9 µM (active).
With CCn1cnc2c1c(=O)n(CC(=O)Nc1ccc3c(c1)OC(F)(F)O3)c(=O)n2Cc1ccccc1 the IC50 [1] was < 0.4 µM (not active).
With O=C1CC(c2ccccc2)Sc2nc3ccccc3n21 (centres undefined) the EC50 [2] was 15.4 µM (active) and the EC50 (H4) was 15.4 µM (active).
In the case of COc1ccc2c3c(n(C)c2c1)[C@@H](CO)N(CC1CCCCC1)CC31CCN(C(=O)CN(C)C)CC1, the AC50 [3] is reported as 5.49 µM (active).
For Cc1c(C(=O)N2CCOCC2)sc(NC(=O)CCl)c1C#N, the CC50 (Vero) was 22.3 µM (active).
With CC(C)N(C(=O)COC(=O)c1ccc(O)cc1)C(C)C the IC50 [1] was 18.7 µM (not active).
For CN(Cc1ccccc1)S(=O)(=O)c1ccc(C(=O)Nc2nnc(C3CC3)o2)cc1, the EC50 [4] was > 160 µM (inactive) and the EC50 [5] was 1.76 µM (active).
In the case of Cc1ccc(C2=NS(=O)(=O)N(C)C(C(=O)NC3CCCC3)=C2)cc1, the EC50 (cells [6]) is reported as > 350 µM (not active) and the EC50 (cells [7]) is reported as > 350 µM (not active).
For CCc1c(C)nc2cc(-c3ccc(OC)c(OC)c3)nn2c1NCC1CC1, the CC50 [8] was 13.7 µM (active), the AC50 [9] was 5.11 µM (active) and the AC50 [10] was 5.44 µM (active).
With CCOC(=O)c1c(NC(=O)CN2C(=O)NC3(CCC(C)CC3)C2=O)sc(C)c1-c1ccc(C)cc1 (centres undefined) the EC50 (cells [6]) was > 350 µM (not active) and the EC50 (cells [7]) was 49.6 µM (active).
For C[C@H]1CN([C@@H](C)CO)S(=O)(=O)c2ccc(-c3cccc(F)c3)cc2O[C@H]1CN(C)S(=O)(=O)c1ccccc1, the AC50 [11] was 25.7 µM (active).
In the case of CCCOc1cccc(-c2cc(C(=O)NN=C(S)NCC)c3ccccc3n2)c1, the EC50 [4] is reported as > 160 µM (inactive), the EC50 [5] is reported as > 38 µM (not active) and the EC50 [12] is reported as 1.41 µM (active). The EC50 [13] was > 112 µM (not active).
With O=C(Nc1cnc2sccn2c1=O)c1ccccc1Cl the EC50 [2] was 0.199 µM (active) and the EC50 (H4) was > 120 µM (not active).
In the case of CC(C)(C)N1C(=O)c2ccc(C(=O)Nc3ccc(O)cc3)cc2C1=O, the AC50 [14] is reported as 3.13 µM (active) and the IC50 [15] is reported as 26.8 µM (active).
In the case of CC(C)C[C@H](NC(=O)c1[nH]cnc1C(=O)NCCCCCNC(=O)OC(C)(C)C)C(=O)OC(C)(C)C, the IC50 [1] is reported as 26.6 µM (not active).
For C[C@H]1CN([C@@H](C)CO)C(=O)c2ccccc2-c2ccccc2CO[C@H]1CN(C)Cc1cccc(C(F)(F)F)c1, the AC50 [3] was 4.48 µM (active).
For C/N=C1/c2cc3cc(OC)ccc3n2CCN1Cc1ccccc1, the AC50 [16] was 45.4 µM (active).
For CCN(CC)c1ccc(C(=O)NNC(=O)CCl)cc1, the IC50 [1] was 9.84 µM (active).
In the case of CCCn1c(SCC(=O)Nc2ccccc2OC)nnc1-c1ccco1, the EC50 (BJ [17]) is reported as 29.2 µM (active), the EC50 (BJ [18]) is reported as 50.9 µM (active) and the EC50 (BJ [19]) is reported as > 150 µM (inconclusive). The EC50 [20] was 21.1 µM (active).
With O=C(c1ccccn1)N1CC[C@H]2[C@H](CO)Nc3ccc(-c4ccccc4)cc3[C@H]21 the AC50 [3] was 12.4 µM (active).
In the case of COc1ccccc1NC(=O)COC(=O)C12CC3CC(CC(Cl)(C3)C1)C2, the IC50 [1] is reported as 13 µM (not active).
In the case of CCC1=Nc2cc(C(=O)NCCN3CCOCC3)ccc2Sc2ccc(Br)cc21, the EC50 (BJ [17]) is reported as > 150 µM (not active), the EC50 (BJ [18]) is reported as > 150 µM (not active) and the EC50 (BJ [19]) is reported as > 150 µM (not active). For the same molecule, the EC50 [20] was > 150 µM (not active).
With CC(=O)c1ccc(NC(=O)C(C)OC(=O)/C=C/c2ccco2)cc1 (centres undefined) the AC50 [9] was 9.12 µM (active), the AC50 [16] was > 70 µM (inactive) and the AC50 [10] was 15.3 µM (active).
With O=C(NCc1ccc2c(c1)OCO2)c1ccc2c(c1)N(Cc1c(F)cccc1Cl)C(=O)CS2 the IC50 (Fatty acid synthase [21]) was 10.3 µM (active) and the IC50 (Fatty acid synthase [22]) was 6.15 µM (active).

— ChEMBL document CHEMBL1201862, “PubChem BioAssay data set” (2004)
